Results from patent US5683982A, “Synthetic lung surfactant having antioxidant properties” (Merrell Pharmaceuticals Inc., priority 1995, dated 1997).
Starred links: 1 amine or outer side, 2 acyl side, 3 side chain; linkers in the order of their positions; H or OH if unused. Residues, ends and D or L forms follow the SMILES beside them. *: point of attachment. X1 = CC(C)(C)c1cc(C(=O)*)cc(C(C)(C)C)c1O; Suc = O=C(CCC(=O)[*:2])[*:1]

Columns and labels:
[1] = Surface tension of an oscillating bubble in a pulsating bubble surfactometer; assay type: physicochemical; conditions: after 10 min of pulsing, 37° C.
Procedure: Surface Tension Measurements. The minimum and maximum surface tension of an oscillating bubble were measured on samples at 37° C. with a cycle rate of 20 per min in a pulsating bubble surfactometer (PBS, Electronetics Corp.), essentially as described by Enhorning, J. Appl. Physiol 43:198-203 (1977). The plastic cample chamber was rinsed with a dilute solution of dishwashing detergent, thoroughly rinsed with water and dried under a stream of N2 prior to use.

[2] = tested on: surfactant-deficient lavaged adult rat lungs; test: Isolated rat lavaged lung model (pressure-volume deflation curves); assay type: in vivo; conditions: for effect on the pressure-volume (P-V) curve of the lavaged lung: statement in words
Excerpt: Methods of testing the synthetic surfactant preparations for efficacy are well known in the art. For example, the synthetic surfactant preparations of the present invention can be tested in any appropriate manner such as in the adult rat lung model (Ikegami, et al., (1979) Pediatr. Res. 13, 777-780).
Pressure-volume characteristics of surfactant-depleted rat lungs are similar to those of lungs of infants with hyaline membrane disease and restoration of the pressure-volume relationship of the lung to normal is related to the amount of surfactant instilled in a dose dependent manner. (Bermel, M. S., et al., Lavaged excised rat lungs as a model of surfactant deficiency, Lung 162:99-113 (1984)).
Isolated Rat Lavaged Lung Model. The experimental procedures for animal preparation, pressure-volume curve registration and lung lavage were adapted from those described by Ikegami et al., Pediatr. Res. 11:178-182 (1977) and Pediatr. Res. 13:777-780 (1979, and Bermel et al, Lung 162:99-113 (1984). Male Sprague Dawley rats (200-250 g) were anesthetized with sodium pentobarbital and exsanguinated. The trachea was cannulated and the thoracic organs were removed en bloc. After removal of the adventitious tissue, the trachea and lungs (~2 g) were suspended in saline (0.9%), placed in a vacuum chamber, and degassed according to the procedure of Stengel et al. the degassed lungs were suspended in saline in a 37° C., jacketed reservoir and the tracheal cannula was connected both to a water manometer and a glass syringe by a T-tube. The glass syringe was placed in an infusion/withdrawal pump. Lungs were rapidly inflated with air to 30 cm H2 O pressure at the rate of 10 ml/min to minimize air trapping, and were maintained at this pressure for 10 min by intermittently adding air to the lungs. The total volume of air infused was recorded as the total lung capacity (TLC) which was generally 14-15 ml. The lungs were then deflated at a rate of 2.5 ml/min until zero pressure was attained. During deflation, pressure was read from the water manometer at 1 cm intervals and recorded. […] After degassing and equilibration, the lungs were rendered surfactant-deficient by repeated lavage with 5 ml/g lavage buffer (0.9% NaCl, 10 mM HEPES, pH 7.4). The procedures of degassing, equilibrating, and lavaging were repeated (15-20 times) until the pressure-volume curve had become distinctly sigmoidal in shape and the volume of air remaining in the lungs at 5 cm H2 O pressure was less than or equal to 3 ml. At this point, the lungs were considered surfactant-deficient. For testing, 2 ml of 0.9% NaCl, 10 mM HEPES buffer, pH 7.4, were added to the dry lung surfactants (25 mg of phospholipid; 100-125 mg/kg) and the mixture was vortexed, flushed with nitrogen and incubated for 1 h at 45° C. The mixture was then vortexed again, degassed if foamy, and 2 ml of the test mixture were introduced into and withdrawn from the lungs four times by syringe. When the test mixture was reintroduced to the lungs for the fifth time, it was allowed to remain in the lungs. This procedure was adopted to encourage even distribution of the material throughout the lung. The lungs were degassed, allowed to equilibrate at 37° C. for 5 min, and a P-V measurement was performed. […] The deflation limbs of the pressure-volume (P-V) curves in adult rat lungs were analyzed by calculating the total lung capacities (%TLC) at 5 and 10 cm H2 O pressure (PC5 and PC10).

[3] = CD spectra: conformation of peptides in water and TFE; assay type: physicochemical; conditions: fits ±3% (SEM of fit)
Procedure: CD Spectra. Circular dichroic (CD) spectra of samples in 1 mm circular cuvettes were recorded at room temperature on a Jasco J-500A Spectropolarimeter with 2 nm slit width. The CD spectrum of buffer was subtracted from the CD spectrum of the sample after each scan. The scan rate is 2 nm/min and the time constant was 8 sec. Data was collected at 0.04 nm intervals and averaged over a 0.2 nm interval.

[4] = tested on: soy phosphatidyl-choline (PC); test: Antioxidant activity: inhibition of Fe-initiated lipid peroxidation (TBARs); assay type: biochemical
Procedure: Antioxidant Activity. Peptides were dissolved in trifluoroethanol (TFE) and mixed with soy phosphatidyl-choline (PC) in chloroform. After drying under a N2 stream, the mixture was resuspended in ethanol and injected into buffer (50 mM NaCl, 50 mM Tris-HCl, pH 7.0) to obtain a final concentration of 0.5 mM phospholipid. Peroxidation was initiated with 50 μM Fe^2+ plus a mixture of 50 μM Fe^3+ and 250 μM histidine. At intervals over a period of 15 min at 37° C., 1 mL samples of the reaction mixture were taken for determination of TBARs (thiobarbituric acid reactive substances). Two mL of a mixture of 2 parts of 0.67% thiobarbituric acid/0.05N NaOH and 1 part of 10% trichloroacetic acid and 0.05 mL of 2% butylated hydroxytoluene were added. Reaction proceeded for 30 min at 100° C. The tubes were then cooled, centrifuged for 15 min at 3000 rpm and transferred to acrylic cuvettes. The differences in absorbance at 532 nm and 700 nm (to correct for light scattering) were measured and the TBARs were calculated in units of malondialdehyde equivalents using a molar extinction coefficient of 1.56×10^5 M^-1 cm^-1.

[5] = water, fit to standard spectra of Greenfield & Fasman

SMILES | γmin (minimum surface tension) ([1]; unsonicated liposomes) | PC5 (% TLC at 5 cm H2O) ([2]; no dose given, mean ± SEM, n=4) | PC10 (% TLC at 10 cm H2O) ([2]; no dose given, mean ± SEM, n=4) | restoration (based on PC5) ([2]; no dose given, relative to sufficient and deficient measurements on the same lungs, mean ± SEM) | effect on the pressure-volume (P-V) curve of the lavaged lung [2] | Conformation based on CD spectra: α ([3]; TFE, first TFE column) | Conformation based on CD spectra: α (second TFE column) ([3]; TFE, second TFE column) | Conformation based on CD spectra: α [3, 5] | Conformation based on CD spectra: β [3, 5] | antioxidant activity (inhibition of lipid peroxidation) ([4]; in soy PC mixtures, 50 μM Fe2+ plus 50 μM Fe3+/250 μM histidine, 37° C., 15 min) | γmin (minimum surface tension) ([1]; mixture with DPPC, 20 cycles per min) | time for which oxidation is totally inhibited ([4]; 0.6% (by weight), added to WMAP10 in soy PC mixtures, data not shown)
CCCCCCCCCCCCCCCC(=O)OC[C@H](COP(=O)([O-])OCC[N+](C)(C)C)OC(=O)CCCCCCCCCCCCCCC [DPPC, dipalmitoylphosphatidylcholine] | 38 mN/m | 13 ± 1 % TLC | 31 ± 2 % TLC | -11 ± 8% | no significant effect | – | – | – | – | – | – | –
CC(C)C[C@H](NC(=O)CCC(=O)O)C(=O)N[C@@H](CC(C)C)C(=O)N[C@@H](CCC(=O)O)C(=O)N[C@@H](CCCCN)C(=O)N[C@@H](CC(C)C)C(=O)N[C@@H](CC(C)C)C(=O)N[C@@H](CCC(=O)O)C(=O)N[C@@H](CCCCNC(=O)c1cc(C(C)(C)C)c(O)c(C(C)(C)C)c1)C(=O)N[C@@H](CC(C)C)C(=O)N[C@@H](CCCCN)C(N)=O [HBB-LysMAP10, Suc-Leu-Leu-Glu-Lys-Leu-Leu-Glu-Ne-HBB-Lys-Leu-Lys-NH2] (Suc-LLEKLLEK(X1)LK-NH2) | – | – | – | – | – | 78 | 0 | 59 | 4 | effective antioxidants | – | –
CC(C)(Sc1cc(C(C)(C)C)c(O)c(C(C)(C)C)c1)Sc1cc(C(C)(C)C)c(O)c(C(C)(C)C)c1 [Probucol] | – | – | – | – | does not diminish the activity | – | – | – | – | – | slightly increased | at least 8 min
